Results published in patent US12221436B2, “Anthranilamides, their use as insecticide and processes for preparing the same” (PI INDUSTRIES LTD., priority 2018, dated 2025).

Legend:
Myzus persicae = experiment: Example E: Myzus persicae, leaf dip method (capsicum leaves); format: in vivo; settings: foliar, third instar nymphs, 72 h after release, dead and moribund combined, read-out: percent mortality
Method: (§1) Test solutions were prepared according to the procedure described herein below (500 PPM):
(§2) • 1. Eppendorf Vortex mixer (ThermoMixer C) and 1.5 mL Eppendorf tubes • 2. Beaker—100 mL • 3. Micro-pipette Reagents: • 1. Surfactant Solution • 2. De-mineralized (DM) Water Procedure: • 1. Weigh 10 mg of the compound of the present invention to be tested in an Eppendorf Tube. • 2. Add 200 mg of the Surfactant Solution into the tube. • 3. Fix the tube in Eppendorf Vortex mixer and start vortexing at 2000 rpm. • 4. Mix on Vortex mixer for 30 min. After 30 min, observe the sample over a microscope at 400× resolution. • 5. Add 1.0 mL DM water into the tube, close the cap, shake the tube thoroughly and transfer the contents, along with the beads, into a beaker. • 6. To rinse the tube, add another 1.0 mL of DM water into the tube, close the cap, shake well and transfer this into the same beaker. • 7. Repeat […] one more time so that the tube is rinsed well and all the compound of the present invention is transferred to the beaker. • 8. Add 16.8 mL of DM water into the beaker and stir well. • 9. Immediately use this sample for biological testing. • 10. Further dilutions can be prepared by taking appropriate quantity of the aliquot of Step 8, immediately after stirring, and diluting as per requirement. The sample solution must be well mixed just before biological testing.
(§3) Leaf dip method was used for screening, wherein the required quantity of the compounds were weighed and dissolved in the test solution into the tube and vortex at 2000 rpm with Zirconia beads for 90 min and for proper mixing, then mixed with 0.01% Triton-X solution to get the desired test concentration. Capsicum leaves were dipped in the solution for 10 seconds, shade dried for 20 min and then leaves were kept in glass units with petiole dipped in water. Known numbers of third instar nymphs were released and were kept in the plant growth chamber at a temperature of 25° C. and Relative Humidity of 70%. Observations on dead, moribund and live nymphs were recorded at 72 h after the release. Percent mortality was calculated by combining dead and moribund nymphs. The following compound numbers

Bemisia tabaci = experiment: Example D: Bemisia tabaci, leaf dip method (cotton leaves); format: in vivo; settings: foliar, freshly emerged adults, 72 h after release, dead and moribund combined, read-out: percent mortality
Method: as §1, §2
as §3, with “Cotton” for “Capsicum”, “Known numbers of third instar nymphs were released and were kept in the plant growth chamber at a temperature of 25° C. and Relative Humidity of 70%.” left out, “[…]” for “nymphs”, “adults. […]” for “nymphs. The following compound numbers”

| SMILES | mortality at 300 ppm (Myzus persicae) [%] | mortality at 300 ppm (Bemisia tabaci) [%] |
| --- | --- | --- |
| Cc1cc(Cl)cc(C(=O)NC(C)(C)C)c1NC(=O)c1cc(OC2CSC2)nn1-c1ncccc1Cl [Compound 97, N-(2-(tert-butylcarbamoyl)-4-chloro-6-methylphenyl)-1-(3-chloropyridin-2-yl)-3-(thietan-3-yloxy)-1H-pyrazole-5-carboxamide] | > 50 | > 50 |
| Cc1cc(Cl)cc(C(=O)NC(C)(C)C)c1NC(=O)c1cc(OC2CS(=O)(=O)C2)nn1-c1ncccc1Cl [Compound 99, N-(2-(tert-butylcarbamoyl)-4-chloro-6-methylphenyl)-1-(3-chloropyridin-2-yl)-3-((1,1-dioxidothietan-3-yl)oxy)-1H-pyrazole-5-carboxamide] |  | > 50 |
| CC(C)(C)NC(=O)c1cc(Cl)cc(Cl)c1NC(=O)c1cc(OC2CSC2)nn1-c1ncccc1Cl [Compound 176, N-(2-(tert-butylcarbamoyl)-4,6-dichlorophenyl)-1-(3-chloropyridin-2-yl)-3-(thietan-3-yloxy)-1H-pyrazole-5-carboxamide] | > 50 | > 50 |
